Drawing on patent US4179508A, “Sulfur-containing derivatives of 4,4-dimethyl-2H,4H-isoquinoline-1,3-dione, and anticonvulsant and antihyperlipidemic compositions thereof” (Boehringer Ingelheim GmbH, priority 1977, dated 1979), this text covers ED50, LD50 and animals died for five molecules.

Each structure is given as a SMILES string. Like-named read-outs stand apart in the source and are kept apart here.

Type in all cases: in vivo
In series [1] the test system is hind limb tonic extensor component of the maximal seizure pattern. The experiment in a line: Anticonvulsive activity in mice, maximal electroshock seizure pattern method. To be noted: Mus musculus, male mice, oral, maximal electroshock 50 mA, 0.2 sec. The protocol: (§1) The anticonvulsive activity and toxicity of the compounds of this invention were ascertained by the methods described below, and tables I and II show the results of these tests for a few representative species of the genus, where
Male mice with body weights of between 20 and 26 gm were used as the test animals. They were allowed free access to food and water up to one hour before administration of the test compound. The tests were carried out by using the maximal electroshock seizure pattern method [SWINYARD et, J. Pharmacol. exp. Ther. 106, 319 (1952)].
The electroshock apparatus was constructed according to WOODBURY and DAVENPORT [Arch. int. Pharmacodyn. 99, 97 (1952)]. The electric impulses (50 Hz A.C., 50 mA, 0.2 sec.) were delivered via steel ball electrodes covered with buckskin and moistened with an aqueous 0.9% sodium chloride solution to the heads by way of the eyes of the mice. The test is a measure of the ability of an anticonvulsant drug to abolish the hind limb tonic extensor component of the maximal seizure pattern induced by electric stimulation. The test compound was suspended in 1% of tylose and administered orally in a volume of 0.1 ml per 10 gm of mouse, and each dosage was administered to a group of 10 animals. Control groups received the suspension agent orally. 30, 150 and 300 minutes after administration all animals were shocked. ED50 values were determined by the graphic statistical method of LITCHFIELD and WILCOXON [J. Pharmacol. exp. Therap. 96, 99 (1949)] as a measure of the ability of the test compounds to abolish the hindlimb tonic extensor compound of the maximal seizure pattern in 50 percent of the animals.
(Protection in the maximal electroshock model is a classic sign of anticonvulsant action.)

Series [2] is described as follows: Acute toxicity. Conditions: mouse, in vivo, po; mice, p.o., groups of 10, observation time 4 days. As to the method:
as §1
(§2) The acute toxicity of the compounds was determined after administration of various dosages to groups of 10 mice with body weights of between 20 and 26 gm (observation time: 4 days).

Series [3] deals with mice. The series can be described thus: Acute toxicity. Conditions: 500 mgm/kg p.o., observation time 4 days. As to the method: as §1, §2
The mark [4] stands for this setting: 0.5 h, shocked 30 minutes after administration, read-out: ED50, 30 minutes.
Where [5] appears, read: 2.5 h, shocked 150 minutes after administration, read-out: ED50, 150 minutes.
The mark [6] stands for this setting: 5 h, shocked 300 minutes after administration, read-out: ED50, 300 minutes.

Broadly, the ED50 is the dose at which the effect has come halfway, by size or by number of responders. One may read the LD50 as the dose expected to kill half of the subjects tested. A low value points to a more toxic substance. As for `C[S+]([O-])CCN1C(=O)c2ccccc2C(C)(C)C1=O` (stereo not drawn) [B, 4,4-Dimethyl-2-(2-methylsulfinyl-ethyl)-2H,4H-isoqionoline-1,3-dione], the results for the ED50 in series [1] (setting [4]), in series [1] (setting [5]) and in series [1] (setting [6]) were 14.5 mg/kg, 16.8 mg/kg and 25 mg/kg, respectively. The same molecule had an LD50 at 96 h in series [2] of roughly 500 mg/kg. Also, the animals died in series [3] was 4 of 10.
For `CC1(C)C(=O)N(CCS(C)(=O)=O)C(=O)c2ccccc21` [C, 4,4-Dimethyl-2-(2-methylsulfonyl-ethyl)-2H,4H-isoquinoline-1,3-dione], in that order: 26.3 mg/kg, 35.2 mg/kg, 32.5 mg/kg, greater than 500 mg/kg and 1 of 10.
For `CSCCN1C(=O)c2ccccc2C(C)(C)C1=O` [Compound A, 4,4-Dimethyl-2-(2-methylmercapto-ethyl)-2H,4H-isoquinoline-1,3-dione] the same measures were 17.3 mg/kg, 22.8 mg/kg, 27.8 mg/kg, greater than 500 mg/kg and 0 of 10.
As for `CSCN1C(=O)c2ccccc2C(C)(C)C1=O` [D, 4,4-Dimethyl-2-(methylmercapto-methyl)-2H,4H-isoquinoline-1,3-dione], the ED50 was found to be 28 mg/kg in series [1] (setting [4]), 16.2 mg/kg in series [1] (setting [5]) and 19.8 mg/kg in series [1] (setting [6]).
For `C[S+]([O-])CN1C(=O)c2ccccc2C(C)(C)C1=O` (stereo not drawn) [E, 4,4-Dimethyl-2-(methylsulfinyl-methyl)-2H,4H-isoquinoline-1,3-dione] the same measures were 8.3 mg/kg, 10.5 mg/kg and 11.5 mg/kg.
